Values of other authors in paper PMC12737490, “Beta Toxins Isolated from the Scorpion Centruroides hirsutipalpus (Scorpiones; Buthidae) Affect the Function of Sodium Channels of Mammals” (Toxins, 2025).

Assays:
Nav1.6 = conditions: ref [34]; cited from earlier work
Excerpt: (§1) The Chirp9 peptide in the venom of C. hirsutipalpus has an abundance of 2.8%. It has an experimental mass of 7790.1 Da and a theoretical mass of 7790.9 Da. The sequence of Chirp9 (Figure 3B) shares 97% identity with the Cl13 toxin from the C. limpidus scorpion (UniProt C0HK69) and differs by only two amino acid substitutions: L5I and Q54A. These substitutions could modulate the toxic properties of the venom through structural alterations in the peptide that influence its interaction with target sites, possibly leading to increased potency or stability. The Cl13 toxin is found in C. limpidus ve ...

Nav1.5 = conditions: ref [34]; cited from earlier work
Excerpt: as §1

Nav1.4 = conditions: ref [34]; cited from earlier work
Excerpt: as §1

Nav1.2 = conditions: ref [34]; cited from earlier work
Excerpt: as §1

sodium channel = conditions: stated as reported earlier; no reference in the sentence; cited from earlier work
hNav1.6 channel = conditions: ref [13]; cited from earlier work
Excerpt: When comparing the sequence of the new toxins β-NaScTxs from C. hirsutipalpus with sequences from different scorpions (Figure 3A) using BLASTp version 2.11.0, it is shown that the sequence of the toxin Chirp7 is 100% identical to the sodium toxin Ct1a (UniProt accession P18926) from the C. tecomanus scorpion.

| Substance | effect on sodium currents (Nav1.6) | effect on sodium currents (Nav1.5) | effect on sodium currents (Nav1.4) | effect on sodium currents (Nav1.2) | effect on sodium channel inactivation kinetics (sodium channel) | effect on hNav1.6 channel (hNav1.6 channel) |
| --- | --- | --- | --- | --- | --- | --- |
| Cl13: beta toxin from the C. limpidus scorpion, 97% identity with Chirp9 | modifies sodium currents | modifies sodium currents | modifies sodium currents | modifies sodium currents | slow down the kinetics of sodium channel inactivation |  |
| Ct1a: sodium toxin Ct1a from the C. tecomanus scorpion, sequence 100% identical to Chirp7 |  |  |  |  |  | altering channel activation by lowering the action potential and decreasing the current amplitude |
